Data from patent publication US9133125B2, “Morphan and morphinan analogues, and methods of use” (priority 2013, dated 2015).

System: Male Sprague-Dawley rats
Assay: Thermal pain assay (rodent hot plate model)
Format: in vivo
Settings: rat, dose of 10 mg/kg, subcutaneous

| SMILES | antinociceptive effect, hot plate |
| --- | --- |
| Cl.NC(=O)c1ccc2c(c1O)[C@]13CCN(CC4CCC4)[C@H](C2)[C@]1(O)CC[C@@H](O)C3 [Compound D, (4bR,6R,8aS,9R)-11-(cyclobutylmethyl)-4,6,8a-trihydroxy-6,7,8,8a,9,10-hexahydro-5H-9,4b-(epiminoethano)phenanthrene-3-carboxamide] | no antinociceptive effect |
| Cl.NC(=O)c1ccc2c(c1O)[C@]13CCN(CC4CCC4)[C@H](C2)[C@]1(O)CC[C@H](O)C3 [Compound C, (4bR,6S,8aS,9R)-11-(cyclobutylmethyl)-4,6,8a-trihydroxy-6,7,8,8a,9,10-hexahydro-5H-9,4b-(epiminoethano)phenanthrene-3-carboxamide] | no antinociceptive effect |
